Reference: patent US20250296953A1, “3,4-THIAZOLO-STEROIDS AND METHODS OF MAKING AND USING THE SAME” (Arkansas State University - Jonesboro, priority 2018, published 2025)
Like-named read-outs stand apart in the source and are kept apart here.

Columns and labels:
[1] = test system: NCI-H522 (NSCLC); assay: NCI 60 one dose screen; format: cell-based, human; details: Non-small Cell Lung Cancer
[2] = test system: glioblastoma (SF-295); assay: NCI 60 five dose screen; details: for GI50 / CC50: Homo sapiens; for GI50: SF-295; for CC50: SF-295, read-out: LC50; for TGI: SF-295 (CNS Cancer), five dose
[3] = test system: gliosarcoma (SF-539); assay: NCI 60 five dose screen; details: for GI50 / CC50: Homo sapiens; for GI50: SF-539; for CC50: SF-539, read-out: LC50; for TGI: SF-539 (CNS Cancer), five dose
[4] = test system: HCT-15 (Colon Cancer); assay: NCI 60 one dose screen; format: cell-based, human
[5] = test system: RPMI-8226; assay: NCI 60 five dose screen; details: for GI50 / CC50: Homo sapiens; for GI50: RPMI-8226; for CC50: RPMI-8226, read-out: LC50; for TGI: RPMI-8226 (Leukemia), five dose
[6] = test system: SF-295; assay: NCI 60 one dose screen; format: cell-based, human; details: one dose; CNS Cancer; SF-295
[7] = test system: 60 different human tumor cell lines; details: for TGI: five dose
[8] = EKVX (Non-small Cell Lung Cancer)
[9] = HOP-62 (Non-small Cell Lung Cancer)
[10] = HOP-92 (Non-small Cell Lung Cancer)
[11] = NCI-H23 (Non-small Cell Lung Cancer)
[12] = NCI-H226 (Non-small Cell Lung Cancer)
[13] = NCI-H322M (Non-small Cell Lung Cancer)
[14] = NCI-H460 (Non-small Cell Lung Cancer)
[15] = NCI-H522 (Non-small Cell Lung Cancer)

`C[C@]12CCc3sc(NCCc4ccccc4)nc3C1=CC[C@@H]1[C@@H]2CC[C@]2(C)C(=O)CC[C@@H]12` [IIa.2, (1S,2R,13R,14S,18S)-2,18-dimethyl-7-(2-phenylethylamino)-6-thia-8-azapentacyclo [11.7.0.02,10.05,9.014,18]icosa-5(9),7,10-trien-17-one] was tested, and the “Growth Percent” value [1] was 44.08%, the GI50 [2] was 18.9 µM and the CC50 [2] was over 100 µM. The TGI [2] was over 1.00E−4, the GI50 [3] was 1.69 µM and the CC50 [3] was 7.75 µM. For the same compound, the TGI [3] was 3.62E−6, the “Growth Percent” value [4] was 22.48% and the GI50 [5] was 1.79 µM. For the same compound, the CC50 [5] was over 100 µM, the TGI [5] was 5.69E−6 and the “Growth Percent” value [6] was 68.44%. For the same compound, the LC50 [7] was “>l.00E−4”, the TGI ([7]; 786-0 (Renal Cancer)) was 9.61E−6 and the TGI ([7]; A498 (Renal Cancer)) was over 1.00E−4. For the same compound, the TGI ([7]; ACHN (Renal Cancer)) was 3.75E−6, the TGI ([7]; BT-549 (Breast Cancer)) was over 1.00E−4 and the TGI ([7]; CAKI-1 (Renal Cancer)) was 1.11E−5. For the same compound, the TGI ([7]; CCRF-CEM (Leukemia)) was 4.04E−5, the TGI ([7]; COLO 205 (Colon Cancer)) was 8.77E−6 and the TGI ([7]; DU-145 (Prostate Cancer)) was over 1.00E−4. For the same compound, the TGI [7, 8] was over 1.00E−4, the TGI ([7]; HCC-2998 (Colon Cancer)) was over 1.00E−4 and the TGI ([7]; HCT-15 (Colon Cancer)) was 4.49E−6. The TGI ([7]; HCT-116 (Colon Cancer)) was 1.23E−5, the TGI ([7]; HL-60(TB) (Leukemia)) was 9.10E−6 and the TGI [7, 9] was over 1.00E−4. The TGI [7, 10] was 9.10E−6, the TGI ([7]; HS 578T (Breast Cancer)) was over 1.00E−4 and the TGI ([7]; HT29 (Colon Cancer)) was 8.11E−6. It also gave a TGI ([7]; IGROV1 (Ovarian Cancer)) of 6.18E−6, a TGI ([7]; K-562 (Leukemia)) of over 1.00E−4 and a TGI ([7]; KM12 (Colon Cancer)) of over 1.00E−4. For the same compound, the TGI ([7]; LOX IMVI (Melanoma)) was 3.17E−6, the TGI ([7]; M14 (Melanoma)) was over 1.00E−4 and the TGI ([7]; MALME-3M (Melanoma)) was 6.82E−6. The TGI ([7]; MCF7 (Breast Cancer)) was over 1.00E−4, the TGI ([7]; MDA-MB-231/ATCC (Breast Cancer)) was 2.14E−5 and the TGI ([7]; MDA-MB-435 (Melanoma)) was over 1.00E−4. For the same compound, the TGI ([7]; MDA-MB-468 (Breast Cancer)) was 1.03E−5, the TGI ([7]; MOLT-4 (Leukemia)) was over 1.00E−4 and the TGI [7, 11] was over 1.00E−4. It also gave a TGI [7, 12] of 6.57E−6, a TGI [7, 13] of over 1.00E−4 and a TGI [7, 14] of over 1.00E−4. The TGI [7, 15] was 3.64E−6, the TGI ([7]; NCI/ADR-RES (Ovarian Cancer)) was 7.52E−6 and the TGI ([7]; OVCAR-3 (Ovarian Cancer)) was 4.83E−6. For the same compound, the TGI ([7]; OVCAR-4 (Ovarian Cancer)) was over 1.00E−4, the TGI ([7]; OVCAR-5 (Ovarian Cancer)) was 6.59E−5 and the TGI ([7]; OVCAR-8 (Ovarian Cancer)) was over 1.00E−4. For the same compound, the TGI ([7]; PC-3 (Prostate Cancer)) was over 1.00E−4, the TGI ([7]; RXF 393 (Renal Cancer)) was 4.49E−6 and the TGI ([7]; SF-268 (CNS Cancer)) was over 1.00E−4. The TGI ([7]; SK-MEL-2 (Melanoma)) was over 1.00E−4, the TGI ([7]; SK-MEL-5 (Melanoma)) was 5.27E−5 and the TGI ([7]; SK-MEL-28 (Melanoma)) was 1.89E−5. For the same compound, the TGI ([7]; SK-OV-3 (Ovarian Cancer)) was over 1.00E−4, the TGI ([7]; SN12C (Renal Cancer)) was over 1.00E−4 and the TGI ([7]; SNB-19 (CNS Cancer)) was over 1.00E−4. The TGI ([7]; SW-620 (Colon Cancer)) was 5.28E−6, the TGI ([7]; T-47D (Breast Cancer)) was 2.52E−5 and the TGI ([7]; TK-10 (Renal Cancer)) was over 1.00E−4. It also gave a TGI ([7]; U251 (CNS Cancer)) of over 1.00E−4, a TGI ([7]; UACC-62 (Melanoma)) of 1.06E−5 and a TGI ([7]; UACC-257 (Melanoma)) of 7.98E−5. The TGI ([7]; UO-31 (Renal Cancer)) was 2.51E−5.

With `C[C@]12CCc3sc(Nc4ccc(OC(F)(F)F)cc4)nc3C1=CC[C@@H]1[C@@H]2CC[C@]2(C)C(=O)CC[C@@H]12` [IIa.19, (1S,2R,13R,14S,18S)-2,18-dimethyl-7-[4-(trifluoromethoxy)anilino]-6-thia-8-azapentacyclo[11.7.0.02,10.05,9.014,18]icosa-5(9),7,10-trien-17-one] the “Growth Percent” value [1] was 89.13%, the GI50 [2] was 0.7 µM and the CC50 [2] was 7.16 µM. The TGI [2] was 2.44E−6, the GI50 [3] was 1.05 µM and the CC50 [3] was 7.07 µM. The TGI [3] was 2.72E−6, the “Growth Percent” value [4] was 38.33% and the GI50 [5] was 1.02 µM. The CC50 [5] was over 100 µM, the TGI [5] was 3.77E−6 and the “Growth Percent” value [6] was −2.71%. The TGI ([7]; A549/ATCC (Non-small Cell Lung Cancer)) was 1.61E−5, the TGI ([7]; CCRF-CEM (Leukemia)) was over 1.00E−4 and the TGI ([7]; COLO 205 (Colon Cancer)) was 6.76E−6. For the same compound, the TGI [7, 8] was 1.74E−5, the TGI ([7]; HCC-2998 (Colon Cancer)) was 1.86E−5 and the TGI ([7]; HCT-15 (Colon Cancer)) was 4.10E−6. It also gave a TGI ([7]; HCT-116 (Colon Cancer)) of 2.78E6, a TGI ([7]; HL-60(TB) (Leukemia)) of 4.44E−6 and a TGI [7, 9] of 4.19E−6. It also gave a TGI [7, 10] of 3.44E−6, a TGI ([7]; HT29 (Colon Cancer)) of 1.09E−5 and a TGI ([7]; K-562 (Leukemia)) of 6.64E−6. The TGI ([7]; KM12 (Colon Cancer)) was 1.50E−5, the TGI ([7]; LOX IMVI (Melanoma)) was 3.18E−6 and the TGI ([7]; MALME-3M (Melanoma)) was 1.68E−5. For the same compound, the TGI ([7]; MOLT-4 (Leukemia)) was 1.19E−5, the TGI [7, 11] was 2.17E−5 and the TGI [7, 12] was 4.41E−5. It also gave a TGI [7, 13] of 4.89E−5, a TGI [7, 14] of 1.18E−5 and a TGI [7, 15] of 4.56E−6. The TGI ([7]; SF-268 (CNS Cancer)) was 1.23E−5, the TGI ([7]; SNB-19 (CNS Cancer)) was 9.93E−6 and the TGI ([7]; SNB-75 (CNS Cancer)) was 6.23E−6. The TGI ([7]; SW-620 (Colon Cancer)) was 5.00E−6 and the TGI ([7]; U251 (CNS Cancer)) was 3.26E−6.
